The text below walks through data of patent US5672597A, “Acetamide derivative” (Kaken Pharmaceutical Co., Ltd., priority 1992, dated 1997).

Like-named read-outs stand apart in the source and are kept apart here.

Assay [1] relates to ulcer induced by a stress of restraint plus water-immersion. In words: Test of ulcer induced by a stress of restraint plus water-immersion. Conditions: 7 h, read-out: Percentage of inhibition of ulcer formation; for inhibition in vivo at 30 mg/kg: mouse, 30 mg/kg oral, 15 minutes before the load of the stress, hydrochloride salts. It counts as in vivo, ddY male mouse. As to the method:
(§1) With respect to anti-ulcer effect of the compounds having the general formula (I), there were carried out a test of ulcer induced by pylorus-ligation, which ulcer is induced mainly due to offensive factors; a test of ulcer induced by hydrochloric acid/ethanol, which ulcer is induced mainly due to defensive factors such as mucosal blood flow and mucus; and a test of ulcer induced by a stress of restraint plus water-immersion, which ulcer is induced due to both of offensive and defensive factors. Further, there were carried out a test of ulcer induced by acetic acid as a chronic ulcer model and a test of cure-prolonged ulcer induced by acetic acid. Also, there was examined an activity of increasing gastric mucosal blood flow, which activity brings about acceleration of regeneration of the gastric mucosa. As test compounds, hydrochloride salts were used.
A ddY male mouse weighing 20 to 25 g, which had fasted for 18 hours, was put into a stress cage, and was loaded with a stress by immersing it in a water tank at 23° C., to a level of a xiphoid. After 7 hours, the animal was sacrificed by dislocating the cervical vertebrae and the stomach was taken out therefrom. The length of the ulcer generated on the glandular stomach was measured and the total thereof was regarded as the ulcer coefficient (mm).
To control group, only the medium for the medicament solution was orally administered in an amount of 0.1 ml/10 g (body weight) 15 minutes before the load of the stress.
(§2) The obtained results were subjected to the same formula as in the test of ulcer induced by pylorus-ligation, to calculate a percentage of inhibition of ulcer formation. Six rats were used in each group for the test.

Assay [2] deals with ulcer induced by hydrochloric acid/ethanol. In words: Test of ulcer induced by hydrochloric acid/ethanol. It is filed as in vivo, wistar male rat. Conditions: 1 h, read-out: Percentage of inhibition of ulcer formation; for inhibition in vivo at 30 mg/kg: 30 mg/kg oral, hydrochloride salts. As to the method: as §1
To a wistar male rat weighing 220 to 240 g, which had fasted and thirsted for 24 hours, was orally administered 150 mM hydrochloric acid/70% ethanol solution in an amount of 5 ml/kg (body weight). After 1 hour, the animal was sacrificed by dislocating the cervical vertebrae and the stomach was taken out therefrom. The length of the ulcer generated on the glandular stomach was measured and the total thereof was regarded as the ulcer coefficient (mm).
To control group, only the medium for the medicament solution was orally administered in an amount of […] (body weight), 30 minutes before the administration of hydrochloric acid/ethanol.
as §2

For assay [3], the system named is ulcer induced by pylorus-ligation. The experiment in a line: Test of ulcer induced by pylorus-ligation. It counts as in vivo, wistar male rat. Conditions: 14 h, read-out: Percentage of inhibition of ulcer formation. As to the method:
as §1
The pylorus of a wistar male rat weighing 230 to 250 g, which had fasted for 48 hours, was ligated under ether-anesthesia, according to a usual method. After 14 hours, the animal was sacrificed by ether and the stomach was taken out therefrom.
The area of the ulcer generated on the fore-stomach was measured and the total area of the ulcer per rat was classified into the following six grades to give ulcer coefficients (Table 4).
Each of them was suspended in 0.5% methylcellulose solution and administered in the duodenum immediately after ligating the pylorus, in a dose of 100 mg/kg (body weight), respectively. To control group, only the medium for the medicament solution was administered in an amount of 0.25 ml/100 g (body weight).
The obtained results were subjected to the following formula to calculate a percentage of inhibition of ulcer formation. Six rats were used in each group for the test: [formula]

In assay [4] the test system is cure-prolonged ulcer induced by acetic acid. The experiment in a line: Test of cure-prolonged ulcer induced by acetic acid. It counts as in vivo, wistar male rat. Conditions: rat, 50 mg/kg oral, twice a day; cure prolonged with indomethacin 1 mg/kg s.c. for 13 days. As to the method: as §1
Into the junction of the glandular stomach and the antrum, of a wistar male rat weighing 220 to 240 g, was injected subserosally 30 μl of 20% acetic acid to generate an ulcer induced by acetic acid. From 2 days after the generation of the ulcer, indomethacin was injected subcutaneously in the regions of back of the rat in a dose of 1 mg/kg, once a day for 13 days to prolong the cure of the ulcer induced by acetic acid.
Each of them was suspended in 0.5% methylcellulose solution, and administered orally in a dose of 50 mg/kg, twice a day (in the morning and in the evening) from 13 days, respectively. The animal was sacrificed by ether on the day after the last administration, and the stomach was taken out therefrom. The area of the ulcer was measured. The obtained results were subjected to the following formula to calculate a percentage of improvement for curing ulcer. To control group, only the medium for the medicament solution was administered in an amount of 0.5 ml/100 g (body weight). Twenty rats were used in each group for the test. [formula]

The test system of assay [5] is ulcer induced by acetic acid. In words: Test of ulcer induced by acetic acid. It is filed as in vivo, wistar male rat. Conditions: rat, 15 mg/kg oral, twice a day from 2 days after generation of the ulcer. As to the method:
as §1
Into the junction of the glandular stomach and the antrum, of a wistar male rat weighing 220 to 240 g, was injected subserosally […] of 20% acetic acid to generate an ulcer induced by acetic acid. […] Each of them was suspended in 0.5% methylcellulose solution, and administered orally in a dose of 15 mg/kg, twice a day (in the morning and in the evening) from 2 days after the generation of the ulcer for days, respectively. The animal was sacrificed by ether on the day after the last administration, and the stomach was taken out therefrom. The area of the ulcer was measured.
The obtained results were subjected to the following formula to calculate a percentage of improvement for curing ulcer. To control group, only the medium for the medicament solution was administered in an amount of 0.5 ml/100 g (body weight). Twenty rats were used in each group for the test. [formula]

The mark [6] stands for this setting: rat, 30 minutes before hydrochloric acid/ethanol.
[7] abbreviates: rat, 100 mg/kg, in the duodenum immediately after ligating the pylorus, hydrochloride salts.

Consider `O=C(CSCCNC(=O)c1ccccc1F)NCCCOc1cccc(CN2CCCCC2)c1` [Example 44], for which the inhibition in vivo at 30 mg/kg is 77% in assay [1] and 83% in assay [2] (setting [6]). Moreover, the inhibition in vivo at 100 mg/kg in assay [3] (setting [7]) is 57%.
Consider `CN/C(=N/CCSCc1nc[nH]c1C)NC#N` [cimetidine, reference compound], for which the inhibition in vivo at 100 mg/kg in assay [1] (Mus musculus, po) turned out to be 61%; in assay [2] (Rattus norvegicus, po) it was 7%; in assay [3] (Rattus norvegicus) it was 27%.
Regarding `O=C(CSCCNC(=O)c1ccco1)NCCCOc1cccc(CN2CCCCC2)c1` [Example 5, N-[3-[3-(piperidinomethyl)phenoxy]propyl]-2-[2-(2-furoylamino)ethylthio]acetamide], the inhibition in vivo at 30 mg/kg in assay [1] came to 93%; in assay [2] (setting [6]), 97%. Moreover, the inhibition in vivo at 100 mg/kg in assay [3] (setting [7]) is 57%.
In the case of `O=C(CSCCNC(=O)c1ccccn1)NCCCOc1cccc(CN2CCCCC2)c1` [Example 6], the results for the inhibition in vivo at 30 mg/kg in assay [1] and in assay [2] (setting [6]) were 88% and 61%, respectively. Besides, the inhibition in vivo at 100 mg/kg in assay [3] (setting [7]) amounted to 67%.
On to `COC(=O)NCCSCC(=O)NCCCOc1cccc(CN2CCCCC2)c1` [Example 12, N-[3-[3-(piperidinomethyl)phenoxy]propyl]-2-[2-(methoxycarbonylamino)ethylthio]acetamide], for which the inhibition in vivo at 30 mg/kg in assay [1] and in assay [2] (setting [6]) was 68% in each case. The inhibition in vivo at 100 mg/kg in assay [3] (setting [7]) was found to be 77%.
For `COc1ccccc1C(=O)NCCSCC(=O)NC/C=C\COc1cc(CN2CCCCC2)ccn1` [Example 91], the figures for the inhibition in vivo at 30 mg/kg in assay [1] and in assay [2] (setting [6]) were 83% and 87%, respectively. Also, the inhibition in vivo at 100 mg/kg in assay [3] (setting [7]) amounted to 69%.
The like results for `CCC(=NC#N)NCCSCC(=O)NC/C=C\COc1cccc(CN2CCCCC2)c1` [Example 11, N-[4-[3-(piperidinomethyl)phenoxy]-cis-2-butenyl]-2-[2-[(N-cyanopropioimidoyl)amino]ethylthio]-acetamide] were, in that order, 70%, 51% and 55%.
The like results for `CCOC(=O)NCCSCC(=O)NC/C=C\COc1cccc(CN2CCCCC2)c1` [Example 14, N-[4-[3-(piperidinomethyl)phenoxy]-cis-2-butenyl]-2-[2-(ethoxycarbonylamino)ethylthio]acetamide] were, in that order, 91%, 77% and 63%.
On to `COc1ccccc1C(=O)NCCSCC(=O)NC/C=C\COc1cccc(CN2CCCCC2)c1` [Example 73], for which the values for the inhibition in vivo at 30 mg/kg in assay [1] and in assay [2] (setting [6]) were 69% and 67%, respectively. The inhibition in vivo at 100 mg/kg in assay [3] (setting [7]) is 60%.
With `COC(=O)NCC[S+]([O-])CC(=O)NCCCOc1cccc(CN2CCCCC2)c1` (centres unmarked) [Example 48], the results for the inhibition in vivo at 30 mg/kg in assay [1] and in assay [2] (setting [6]) were 100% and 73%, respectively. Also, the inhibition in vivo at 100 mg/kg in assay [3] (setting [7]) is 95%.
For `CNC(=S)NCCSCC(=O)NCCCOc1cccc(CN2CCCCC2)c1` [Example 16, N-[3-[3-(piperidinomethyl)phenoxy]propyl]-2-[2-(N'-methylthioureido)ethylthio]acetamide] the same measures were 74%, 62% and 70%.
In the case of `COC(=O)NCC[S+]([O-])CC(=O)NC/C=C\COc1cccc(CN2CCCCC2)c1` (centres unmarked) [Example 79], the inhibition in vivo at 30 mg/kg in assay [1] turned out to be 67%; in assay [2] (setting [6]) it was 78%. Besides, the inhibition in vivo at 100 mg/kg in assay [3] (setting [7]) was 57%.
As for `CCOC(=O)NCCSCC(=O)NCCCOc1cccc(CN2CCCCC2)c1` [Example 13, N-[3-[3-(piperidinomethyl)phenoxy]propyl]-2-[2-(ethoxycarbonylamino)ethylthio]acetamide], the inhibition in vivo at 30 mg/kg in assay [1] was determined as 89%; in assay [2] (setting [6]), 69%. Further, the inhibition in vivo at 100 mg/kg in assay [3] (setting [7]) turned out to be 68%.
As for `NC(N)=Nc1nc(CSCCC(N)=NS(N)(=O)=O)cs1` [famotidine, reference compound], the “Percentage of improvement for curing ulcer” value in assay [4] was 26%; in assay [5] it was 7%. For the same compound, the inhibition in vivo at 30 mg/kg in assay [1] is 100%. For the same compound, the inhibition in vivo at 100 mg/kg in assay [2] (rat, 100 mg/kg oral (cimetidine and famotidine), 30 minutes before hydrochloric acid/ethanol) was found to be 34%; in assay [3] (setting [7]), 70%.
With `CCCCNC(=S)NCCSCC(=O)NC/C=C\COc1cc(CN2CCCCC2)ccn1` [Example 95], the values for the inhibition in vivo at 30 mg/kg in assay [1] and in assay [2] (setting [6]) were 71% and 72%, respectively. Besides, the inhibition in vivo at 100 mg/kg in assay [3] (setting [7]) was 73%.
As for `O=C(CSCCNC(=O)c1ccoc1)NC/C=C\COc1cccc(CN2CCCCC2)c1` [Example 10, N-[4-[3-(piperidinomethyl)phenoxy]-cis-2-butenyl]-2-[2-(3-furoylamino)ethylthio]acetamide], the figures for the inhibition in vivo at 30 mg/kg in assay [1] and in assay [2] (setting [6]) were 73% and 89%, respectively. In assay [3] (setting [7]), the inhibition in vivo at 100 mg/kg was determined as 73%.
Regarding `COC(=O)NCCSCC(=O)NC/C=C\COc1cccc(CN2CCCCC2)c1` [Example 15, N-[4-[3-(piperidinomethyl)phenoxy]-cis-2-butenyl]-2-[2-(methoxycarbonylamino)ethylthio]acetamide], the inhibition in vivo at 30 mg/kg turned out to be 98% in assay [1] and 60% in assay [2] (setting [6]). Besides, the inhibition in vivo at 100 mg/kg in assay [3] (setting [7]) worked out at 68%.
For `O=C(CSCCNC(=O)c1ccccc1)NC/C=C\COc1cccc(CN2CCCCC2)c1` [Example 8, N-[4-[3-(piperidinomethyl)phenoxy]-cis-2-butenyl]-2-[2-(benzoylamino)ethylthio]acetamide] the same measures were 93%, 90% and 50%.
For the compound `C=CCOC(=O)NCC[S+]([O-])CC(=O)NC/C=C\COc1cccc(CN2CCCCC2)c1` (centres unmarked) [Example 81], the inhibition in vivo at 30 mg/kg in assay [1] is 73%; in assay [2] (setting [6]), 69%. Moreover, the inhibition in vivo at 100 mg/kg in assay [3] (setting [7]) stood at 76%.
On to `COc1ccc(CN2CCCCC2)cc1OC/C=C\CNC(=O)CSCCNC(=O)c1ccoc1` [Example 4, N-[4-[(2-methoxy-5-piperidinomethyl)phenoxy]-cis-2-butenyl]-2-[2-(3-furoylamino)ethylthio]acetamide], for which the figures for the inhibition in vivo at 30 mg/kg in assay [1] and in assay [2] (setting [6]) were 75% and 97%, respectively. In assay [3] (setting [7]), the inhibition in vivo at 100 mg/kg is 73%.
